Test results taken from PubChem BioAssay (NCI).
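Dose response: 5 concentrations. Exposure: 48 h. Format: 96-well plates. Endpoint: linear interpolation; highest concentration if not reached. Here, GI50 denotes the concentration required for 50% inhibition of growth. The concentration for full growth arrest is given as TGI.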

Key:
Test in all cases: NCI anticancer screen, dose series, 48 h
[1] = tested on: ACHN renal
[2] = tested on: EKVX NSCLC
[3] = tested on: HOP-62 NSCLC
[4] = tested on: HS 578T breast
[5] = tested on: HT29 colon
[6] = tested on: IGROV1 ovarian
[7] = tested on: MALME-3M melanoma
[8] = tested on: PC-3 prostate
[9] = tested on: RXF 393 renal
[10] = tested on: SK-MEL-2 melanoma

Row | Structure (SMILES) | TGI [1] [µM] | TGI [2] [µM] | TGI [3] [µM] | TGI [4] [µM] | TGI [5] [µM] | TGI [6] [µM] | TGI [7] [µM] | TGI [8] [µM] | TGI [9] [µM] | TGI [10] [µM] | GI50 [1] [µM] | GI50 [2] [µM] | GI50 [3] [µM] | GI50 [4] [µM] | GI50 [5] [µM] | GI50 [7] [µM] | GI50 [8] [µM] | GI50 [9] [µM] | GI50 [10] [µM]
1 | CC(=O)O[C@H]1C[C@@H](OC(C)=O)[C@@](C)(O)[C@@H]2[C@@H](OC(C)=O)[C@@]3(O)[C@H](/C=C(/CCl)[C@H]4O[C@H]4[C@@H](OC(C)=O)[C@@]12C)OC(=O)[C@@H]3C | > 25 | > 25 | > 25 | > 25 | > 25 | > 25 | > 25 | > 25 | > 25 | > 25 | – | – | – | – | – | – | – | – | –
2 | CON(C)C(=O)C(C)NC(=O)OC(C)(C)C (stereo not given) | > 100 | > 100 | > 100 | > 100 | > 100 | > 100 | > 100 | > 100 | > 100 | – | – | – | – | – | – | – | – | – | –
3 | CCN(CC)C(=S)SSCCO | 35.8 | 39.7 | > 100 | 34.7 | 30.8 | – | 35 | 28.1 | 34.8 | 39.6 | 18.7 | 20.1 | > 100 | 16 | 17 | 17.9 | 14.9 | 19.4 | 19.9
4 | FC(F)(F)c1cnc(N/N=C(/c2ccccc2)c2ccccn2)c(Cl)c1 | 13.2 | 17.5 | 20.3 | 26.9 | 18.8 | 11.5 | – | 24.6 | 32.5 | 24.4 | – | – | – | – | – | – | – | – | –
5 | Nc1c(C(=O)c2ccccc2)nnc2ccccc12 | 65.4 | > 100 | > 100 | – | > 100 | > 100 | 79.1 | 59.6 | – | 38.3 | – | – | – | – | – | – | – | – | –
6 | Cc1cc(OC(=O)Nc2ccc(Cl)cc2)ccc1C(=S)Nc1ccccc1 | > 100 | > 100 | > 100 | > 100 | > 100 | > 100 | > 100 | > 100 | – | > 100 | – | – | – | – | – | – | – | – | –
7 | CSc1nc(C)cc(=O)n1C1OC(COC(C)=O)C(OC(C)=O)C(OC(C)=O)C1OC(C)=O (stereo not given) | > 100 | > 100 | – | – | > 100 | > 100 | > 100 | – | – | > 100 | – | – | – | – | – | – | – | – | –
8 | Brc1ccc(-c2nc(-c3ccc(Br)cc3)n(-c3ccccc3)n2)cc1 | > 100 | > 100 | > 100 | > 100 | > 100 | > 100 | – | > 100 | – | > 100 | – | – | – | – | – | – | – | – | –
9 | Cn1cnnc1SC(F)(F)c1nc2ccccc2o1 | > 100 | – | > 100 | – | > 100 | > 100 | > 100 | > 100 | > 100 | > 100 | – | – | – | – | – | – | – | – | –
10 | CC(=O)c1sc2c(c1O)c(=O)n(-c1ccccc1)c(=S)n2-c1ccccc1 | – | – | – | > 100 | > 100 | > 100 | > 100 | – | > 100 | > 100 | – | – | – | – | – | – | – | – | –
11 | O=C(/C=C/c1ccc(Cl)cc1)c1ccc(Cl)s1 | > 100 | > 100 | > 100 | > 100 | > 100 | > 100 | > 100 | > 100 | 85.8 | – | – | – | – | – | – | – | – | – | –
12 | CCOP(=O)(/C=C/n1cnc2c(=O)n(C(C)=O)c(N)nc21)OCC | > 100 | > 100 | > 100 | > 100 | > 100 | > 100 | – | > 100 | > 100 | > 100 | – | – | – | – | – | – | – | – | –
13 | COc1cc(S(=O)(=O)Nc2ccc(-c3csc(/N=C\c4cccs4)n3)cc2)ccc1Cl | > 100 | > 100 | > 100 | > 100 | > 100 | > 100 | > 100 | > 100 | – | > 100 | – | – | – | – | – | – | – | – | –
14 | O=C(/C=C/c1cccs1)c1ccc([N+](=O)[O-])cc1 | > 100 | > 100 | > 100 | > 100 | > 100 | > 100 | > 100 | > 100 | – | > 100 | – | – | – | – | – | – | – | – | –
15 | CCN(CCCl)c1cc(CN(C)C)cc(NC(=O)c2cc(C(=O)Nc3cc(CN(C)C)cc(N(CC)CCCl)c3)n(C)n2)c1 | 0.749 | – | 1.21 | 1.52 | 1.02 | 0.38 | 2.86 | 0.492 | 2.08 | 3.3 | – | – | – | – | – | – | – | – | –
16 | CC(=O)OC1CC[C@@]2(C)C(=CC[C@@H]3[C@@H]2CC[C@]2(C)C(OC(C)=O)[C@H](n4ccnc4)C[C@@H]32)C1 (stereo not given in full) | > 100 | > 100 | – | > 100 | 23.7 | > 100 | 28.3 | 39.5 | > 100 | 34.2 | – | – | – | – | – | – | – | – | –
17 | COc1cccc(-c2[nH]c3cc4c(cc3c(=O)c2C(=O)O)OCO4)c1 | > 100 | > 100 | > 100 | – | > 100 | > 100 | – | > 100 | > 100 | > 100 | – | – | – | – | – | – | – | – | –
18 | COC(=O)C1(Cc2ccccc2)Cc2c(C)ccc(C)c2C1=O (stereo not given) | > 100 | > 100 | > 100 | 62 | 69.8 | > 100 | 50.3 | 78.2 | 83.1 | – | – | – | – | – | – | – | – | – | –
19 | Cn1c(=O)n2n(c1=O)C(S(=O)c1ccccc1)C2 (stereo not given) | > 100 | > 100 | > 100 | > 100 | > 100 | > 100 | – | > 100 | > 100 | > 100 | – | – | – | – | – | – | – | – | –
20 | COc1ccc(/C=N/n2c(Cc3ccccc3)n[nH]c2=O)cc1 | > 100 | > 100 | > 100 | 54.4 | > 100 | – | > 100 | > 100 | – | > 100 | – | – | – | – | – | – | – | – | –
21 | C/C(=N\Nc1nc2ccccc2n1C)c1ccc2ccccc2n1 | > 54.5 | 4.3 | 18.2 | 63.8 | 18.3 | 2.74 | 16.3 | – | 29.3 | > 36 | – | – | – | – | – | – | – | – | –
22 | O[C@]12c3ccccc3C1CCCCC2N1CCOCC1 (stereo not given in full) | > 100 | > 100 | > 100 | – | > 100 | – | > 100 | – | > 100 | > 100 | – | – | – | – | – | – | – | – | –
